These results are taken from US20140243302A1, “BRIDGED BICYCLIC COMPOUNDS FOR THE TREATMENT OF BACTERIAL INFECTIONS” (priority 2011, published 2014).

SMILES strings stand for the structures. In brackets after ≈: the same amount, converted by molar mass.

Holding throughout (assay type): cell-based
Assay [1] concerns Staphylococcus aureus Smith. The assay is described as follows: MIC assay, modified agar dilution (CLSI), S. aureus Smith. The following applies: for MIC: Staphylococcus aureus, agar dilution, 35° C., 16-20 hr, lowest concentration that completely inhibited growth, read-out: S_aureus_Smith_WT_MIC; for susceptibility of S. aureus Smith based on MIC interpretive standards defined by CLSI: reference antibiotics. The procedure, abridged: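 Agar dilution per CLSI on Mueller Hinton agar (plus 5% horse blood for S. pneumoniae and E. faecium), compound 128 to 0.001 μg/mL in two-fold steps. Spots of ~1×10^4 CFU incubated at 35 °C for 16-20 hr before MIC scoring.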

Assay [2] relates to Streptococcus pneumoniae IID554. Description: MIC assay, modified agar dilution (CLSI), S. pneumoniae IID554. The following applies: for Strep_Pn_IID554_WT_MIC: agar dilution, MHA with 5% defibrinated horse blood; for susceptibility of S. pneumoniae IID554 based on MIC interpretive standards defined by CLSI: reference antibiotics. As for the experimental part: (§1) The potency of antibacterial agents was measured using the Minimal Inhibitory Concentration (MIC) assay. The assay measures the ability of test agents to inhibit the growth of bacteria on agar-containing medium.
(§2) The bacterial test strains used were exemplified by Staphylococcus aureus Smith, Enterococcus faecium A2373, Streptococcus pneumoniae IID554, and Escherichia coli ATCC 25922. All strains were maintained as frozen stocks held at −80° C. in skim milk. Other bacterial test strains are well known to those skilled in the art and can be used for testing.
(§3) Mueller Hinton Agar (MHA BBL; Becton Dickinson and Company, Sparks, Md.) was used as the medium. MHA was supplemented with 5% defibrinated horse blood (DHB; Nippon Biotest Laboratories inc.) to support the growth of S. pneumoniae and E. faecium.
(§4) MIC values were determined using a modified agar dilution procedure described by the Clinical and Laboratory Standards Institute (CLSI; Methods for Dilution Antimicrobial Susceptibility Tests for Bacteria That Grow Aerobically; Approved Standard—Eighth Edition. CLSI document M07-A8 [ISBN 1-56238-689-1]. Clinical and Laboratory Standards Institute, 940 West Valley Road, Suite 1400, Wayne, Pa. 19087-1898 USA, 2009).
(§5) Stock solutions (6.4 mgmL) of test compounds were prepared in 100% ultrapure dimethyl sulfoxide (DMSO; source) on the day of the assay. Subsequent serial dilutions were performed to generate solutions with concentrations ranging from 6.4 to 0.0002 mgmL in 100% DMSO.
Agar medium containing test compound was prepared by adding the dilutions of antimicrobial solution to molten MHA at a temperature of 45-50° C. The agar and antimicrobial solution were mixed thoroughly, poured into petri dishes, and allowed to solidify at room temperature. The final concentration of test compounds in the MHA medium ranged from 128 to 0.001 μg/mL with two-fold dilutions. MHA plates lacking antibacterial compound were used for growth controls.
Prior to susceptibility testing, the bacterial isolates were removed from frozen storage, thawed at room temperature, sub-cultured to MHA medium and incubated overnight at 35° C. S. pneumoniae and E. faecium were subcultured on MHA supplemented with 5% DHB at 35° C. with […]. Colonies from each plate were suspended in normal saline. This suspension was adjusted to the turbidity of a 0.5 McFarland standard, 1-2×10^8 colony forming units (CFU) per mL, and diluted 100-fold to 1-2×10^6 CFUmL.
Suspensions of bacterial cultures were applied to the surface of MHA plates containing test compound as well as to a growth control plate lacking test compound using an inoculum-replicating device with 4 mm pins. The replicating device applied 5 uL of the bacterial suspension such that each spot contained approx. 1×10^4 CFU. […]
(Agar dilution tests growth on a series of plates holding different concentrations.)

In assay [3] the test system is Escherichia coli ATCC 25922. Description: MIC assay, modified agar dilution (CLSI), E. coli ATCC 25922. As to the method:
as §1, §2, §3, §4
(§6) Stock solutions (6.4 mgmL) of test compounds were prepared in 100% ultrapure dimethyl sulfoxide (DMSO; source) on the day of the assay. […]

For assay [4], the system named is Pseudomonas aeruginosa PAO1. Description: MIC assay, modified agar dilution (CLSI), P. aeruginosa PAO1. As for the experimental part: as §1, §3, §4, §5
(§7) Agar medium containing test compound was prepared by adding the dilutions of antimicrobial solution to molten MHA at a temperature of 45-50° C. […]

For another assay, the system named is A_bau_IID876. The assay is described as follows: MIC assay, modified agar dilution (CLSI), A_bau_IID876. As to the method:
as §1, §3, §4, §5, §7

For assay [5], the system named is Enterococcus faecium A2373. The assay is described as follows: MIC assay, modified agar dilution (CLSI), E. faecium A2373. To be noted: reference antibiotics. As to the method:
as §1, §2, §3, §4, §6

Consider `COc1ccc2ncc(F)c(CC(O)C34CCC(NCc5ccc6c(n5)NC(=O)CO6)(CC3)CO4)c2n1.Cl` (single isomer, unassigned) [Example 20a, 6-((1-(2-(3-Fluoro-6-methoxy-1,5-naphthyridin-4-yl)-1-hydroxyethyl)-2-oxabicyclo[2.2.2]octan-4-ylamino)methyl)-2H-pyrido[3,2-b][1,4]oxazin-3(4H)-one Hydrochloride], for which, in assay [1], the MIC worked out at 0.063 µg/mL. The Strep_Pn_IID554_WT_MIC in assay [2] stood at 0.250 µg/mL. The E_coli_ATCC25922_WT_MIC in assay [3] stood at 4.00 µg/mL. In addition, in assay [4], the P_ae_PAO1_WT_MIC was found to be 16.0 µg/mL. The A_bau_IID876_WT_MIC with A_bau_IID876 is 1.00 µg/mL.

In the case of `COc1ccc2ncc(F)c(CCC34CCC(NCc5ccc6c(n5)NC(=O)CO6)(CC3)CO4)c2n1.Cl` [Example 18, 6-((1-(2-(3-Fluoro-6-methoxy-1,5-naphthyridin-4-yl)ethyl)-2-oxabicyclo[2.2.2]octan-4-ylamino)methyl)-2H-pyrido[3,2-b][1,4]oxazin-3(4H)-one Hydrochloride], in assay [1], the MIC was 0.016 µg/mL. This compound also displayed a Strep_Pn_IID554_WT_MIC in assay [2] of 0.0630 µg/mL. In assay [3], this compound yielded an E_coli_ATCC25922_WT_MIC of 1.00 µg/mL. In assay [4], this compound returned a P_ae_PAO1_WT_MIC of 4.00 µg/mL. Further, the A_bau_IID876_WT_MIC in the assay on A_bau_IID876 worked out at 0.500 µg/mL.

In the case of `CC(O)(CC12CCC(NCc3ccc4c(n3)NC(=O)CO4)(CC1)CO2)c1c(F)cnc2ccc(OCCO)nc12` (centres unmarked) [Example 209, 1-(2-(3-Fluoro-6-(2-hydroxyethoxy)-1,5-naphthyridin-4-yl)-2-hydroxypropyl)-N-((3-oxo-3,4-dihydro-2H-pyrido[3,2-b][1,4]oxazin-6-yl)methyl)-2-oxabicyclo[2.2.2]octan-4-aminium chloride], in assay [1], the MIC is 8 µg/mL.

Consider `O=C1COc2ccc(CNC34CCC(CC(O)c5c(F)cnc6ccc(OCCCO)nc56)(CC3)OC4)nc2N1` (centres unmarked) [Example 210, 1-(2-(3-Fluoro-6-(3-hydroxypropoxy)-1,5-naphthyridin-4-yl)-2-hydroxyethyl)-N-((3-oxo-3,4-dihydro-2H-pyrido[3,2-b][1,4]oxazin-6-yl)methyl)-2-oxabicyclo[2.2.2]octan-4-aminium chloride], for which, in assay [1], the MIC was determined as 0.25 µg/mL.

As to `Cl.O=C1COc2ccc(CNC34CCC(CCn5c(=O)ccc6ncc(OCC7CC7C(=O)O)cc65)(CC3)OC4)nc2N1` (centres unmarked) [Example 283, 2-((6-Oxo-5-(2-(4-((3-oxo-3,4-dihydro-2H-pyrido[3,2-b][1,4]oxazin-6-yl)methylamino)-2-oxabicyclo[2.2.2]octan-1-yl)ethyl)-5,6-dihydro-1,5-naphthyridin-3-yloxy)methyl)cyclopropanecarboxylic Acid Hydrochloride], in assay [1], the MIC turned out to be 16 µg/mL.

Take `COc1ccc2ncc(F)c(CCC34CCC(NCc5cc6c(F)ccc(F)c6nc5OC)(CC3)CO4)c2n1` [Example 288, N-((5,8-Difluoro-2-methoxyquinolin-3-yl)methyl)-1-(2-(3-fluoro-6-methoxy-1,5-naphthyridin-4-yl)ethyl)-2-oxabicyclo[2.2.2]octan-4-amine]: the MIC in assay [1] came to 0.125 µg/mL (≈ 0.232 µM).

In the case of `O=C1COc2ccc(CNC34CCC(CCc5c(F)cnc6ccc(N7CCOC7=O)nc56)(CC3)OC4)nc2N1` [Example 292, 6-((1-(2-(3-Fluoro-6-(2-oxooxazolidin-3-yl)-1,5-naphthyridin-4-yl)ethyl)-2-oxabicyclo[2.2.2]octan-4-ylamino)methyl)-2H-pyrido[3,2-b][1,4]oxazin-3(4H)-one], the MIC in assay [1] was 0.125 µg/mL (≈ 0.228 µM).

Consider `O=C1COc2ccc(CNC34CCC(CCc5c(F)cnc6ccc(N7CCC(O)CC7)nc56)(CC3)OC4)nc2N1` [Example 293, 6-((1-(2-(3-Fluoro-6-(4-hydroxypiperidin-1-yl)-1,5-naphthyridin-4-yl)ethyl)-2-oxabicyclo[2.2.2]octan-4-ylamino)methyl)-2H-pyrido[3,2-b][1,4]oxazin-3(4H)-one], for which the MIC in assay [1] stood at 0.5 µg/mL (≈ 0.889 µM).

Turning to `O=C1COc2ccc(CNC34CCC(CCc5c(F)cnc6ccc(N7CC[C@H](O)C7)nc56)(CC3)OC4)nc2N1` [Example 294, (S)-6-((1-(2-(3-Fluoro-6-(3-hydroxypyrrolidin-1-yl)-1,5-naphthyridin-4-yl)ethyl)-2-oxabicyclo[2.2.2]octan-4-ylamino)methyl)-2H-pyrido[3,2-b][1,4]oxazin-3(4H)-one], the MIC in assay [1] is 0.125 µg/mL (≈ 0.228 µM).

Consider `CC(=O)NC[C@H]1CN(c2ccc(N3CCOCC3)c(F)c2)C(=O)O1` [linezolid, reference compound], for which the “susceptibility of S. aureus Smith based on MIC interpretive standards defined by CLSI” value in assay [1] was “susceptible”. The “susceptibility of S. pneumoniae IID554 based on MIC interpretive standards defined by CLSI” value in assay [2] is recorded as “susceptible”. In addition, the “susceptibility of E. faecium A2373” value in assay [5] is given as “susceptible”.

Consider `CN[C@H](CC(C)C)C(=O)N[C@H]1C(=O)N[C@@H](CC(N)=O)C(=O)N[C@H]2C(=O)N[C@H]3C(=O)N[C@H](C(=O)N[C@H](C(=O)O)c4cc(O)cc(O)c4-c4cc3ccc4O)[C@H](O)c3ccc(c(Cl)c3)Oc3cc2cc(c3O[C@@H]2O[C@H](CO)[C@@H](O)[C@H](O)[C@H]2O[C@H]2C[C@](C)(N)[C@H](O)[C@H](C)O2)Oc2ccc(cc2Cl)[C@H]1O` [vancomycin, reference compound], for which the “susceptibility of S. aureus Smith based on MIC interpretive standards defined by CLSI” value in assay [1] was “susceptible”. In assay [2], the “susceptibility of S. pneumoniae IID554 based on MIC interpretive standards defined by CLSI” value was “susceptible”. Further, the “susceptibility of E. faecium A2373” value in assay [5] was “resistant”.
